Where a chain is given by its changes, count along the chain named. Values after ≈ are worked out from the molar mass of the structure shown. Like-named read-outs stand apart in the source and are kept apart here.
Experiments:
DfrA5 [1] = target: T1, DfrA5 (Escherichia coli, UniProt P11731); test: biochemical; set-up: species or system E. coli
Experimental: (§1) The assay was performed at room temperature using the Shimadzu UV/visible spectrophotometer. A standard reaction buffer contained 20 mM TES, pH 7.0, 50 mM KCl, 10 mM β-mercapthoethanol, 0.5 mM EDTA, and 1 mg/ml BSA. […] All measurements were performed in triplicate, from at least two independent experiments.

E. coli DHFR (EcDHFR) = target: T2, E. coli DHFR (EcDHFR) (Escherichia coli, UniProt P0ABQ4); test: biochemical
T2 construct: E. coli DHFR gene (UniProtKB:P0ABQ4) and dfrA1 gene (UniProtKB:A4GRC7) were synthesized and cloned in pET-41a (+) vector; made in house; host or cells: E. coli BL21(DE3)
Experimental: as §1

EcDHFR D27E [2] = target: T3, EcDHFR D27E (Escherichia coli, UniProt P0ABQ4, D27E); test: Enzyme inhibition assay (NADPH oxidation, 340 nm); type: biochemical
T3 construct: using E. coli DHFR template previously synthesized by GeneScript; made in house; host or cells: E. coli BL21(DE3)
T3 sequence (P0ABQ4 1-159 D27E): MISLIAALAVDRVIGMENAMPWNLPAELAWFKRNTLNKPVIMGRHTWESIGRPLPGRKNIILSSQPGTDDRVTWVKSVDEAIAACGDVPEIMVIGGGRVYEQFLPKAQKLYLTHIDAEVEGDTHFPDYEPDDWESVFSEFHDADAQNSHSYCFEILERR
Experimental: as §1

EcDHFR D27E/L28Q [3] = target: T4, EcDHFR D27E/L28Q (Escherichia coli, UniProt P0ABQ4, D27E/L28Q); test: Enzyme inhibition assay (NADPH oxidation, 340 nm); type: biochemical
T4 construct: using E. coli DHFR template previously synthesized by GeneScript; made in house; host or cells: E. coli BL21(DE3)
T4 sequence (P0ABQ4 1-159 D27E/L28Q): T3 sequence (P0ABQ4 1-159 D27E) with L28Q
Experimental: as §1

EcDHFR L28Q [4] = target: T5, EcDHFR L28Q (Escherichia coli, UniProt P0ABQ4, L28Q); test: Enzyme inhibition assay (NADPH oxidation, 340 nm); type: biochemical
T5 construct: using E. coli DHFR template previously synthesized by GeneScript; made in house; host or cells: E. coli BL21(DE3)
T5 sequence (P0ABQ4 1-159 L28Q): T3 sequence (P0ABQ4 1-159 D27E) with E27D, L28Q
Experimental: as §1

DfrA1 and DfrA5 = type: biochemical, E. coli; details: range over DfrA1 and DfrA5
Experimental: as §1

EcDHFR = target: T6, EcDHFR (Escherichia coli, UniProt P0ABQ4); type: binding
T6 construct: E. coli DHFR gene (UniProtKB:P0ABQ4) and dfrA1 gene (UniProtKB:A4GRC7) were synthesized and cloned in pET-41a (+) vector; made in house; host or cells: E. coli BL21(DE3)
Experimental: (§2) In all, 200 µg of purified enzyme was preincubated for 18 h without and with a 10× molar excess of the ligand(s) (NADPH, TMP or PLA) in 20 mM Hepes 7.5, 100 mM KCl, 5% glycerol, ±2.0% DMSO and 2 mM DTT buffer. […] Changes in intrinsic fluorescence intensity (measured ratio of absorbance at 350 nm over 330 nm) from tryptophan residues were used to calculate derivatives using the evaluation features provided by the Tycho instrument.

DfrA1 = target: T7, DfrA1 (Escherichia coli, UniProt P00382); type: binding, E. coli
T7 construct: dfrA1 gene (UniProtKB:A4GRC7) were synthesized and cloned in pET-41a (+) vector; made in house; host or cells: E. coli BL21(DE3)
T7 sequence (P00382 1-157): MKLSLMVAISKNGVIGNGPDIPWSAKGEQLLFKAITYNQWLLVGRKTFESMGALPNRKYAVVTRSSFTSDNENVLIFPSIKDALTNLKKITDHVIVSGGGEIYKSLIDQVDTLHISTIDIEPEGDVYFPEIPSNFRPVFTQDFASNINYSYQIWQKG
Experimental: as §2

E. coli BW25113 = test: microbe, parasite or virus in culture; type: cell-based; details: for MIC: Escherichia coli, 80% inhibition of growth
Experimental: (§3) Preparation, handling of cultures and the antibiotic susceptibility testing was performed according to CLSI guidelines. […] The compounds at the highest concentrations alone and paired with Sulfamethoxazole (1:19 w/w ratio) were then added to the first well before being serially diluted (2-fold) throughout the plate, leaving the last well with broth only (negative growth control). Next, 50 μl of the inoculum was added to each well.

[5] = system: E. coli JW0451 acrB mutant strain; test: microbe, parasite or virus in culture; type: cell-based; details: for MIC: w/o SMX, 80% inhibition of growth, 18 to 20 hours, 37°C
Experimental: as §3

[6] = system: E. coli BL21(DE3) strain overexpressing EcDHFR wt; test: Antibacterial activity (MIC); type: cell-based; details: Escherichia coli
[7] = system: E. coli BL21(DE3) strain overexpressing DfrA1; test: Antibacterial activity (MIC); type: cell-based; details: Escherichia coli
[8] = system: E. coli BL21(DE3) strain overexpressing DfrA5; test: Antibacterial activity (MIC); type: cell-based; details: Escherichia coli
DfrA5 [9] = target: T1, DfrA5; type: binding, E. coli; set-up: E. coli dfrA5 gene (UniProtKB:A0A4Y6L037) was synthesized and cloned in pET-24a (+) vector with the same restriction sites; 6xHis tag (C); made in house; host or cells: E. coli BL21(DE3)
Experimental: as §2, with “instrument. The inflection temperature (Ti) as a marker of protein structural integrity was determined by the first derivative of the signal (ratio of 350 nm/330 nm).” for “instrument.”

[10] = system: NC(=O)C1=CN([C@H]2O[C@H](COP(=O)(O)OP(=O)(O)OC[C@H]3O[C@@H](n4cnc5c(N)ncnc54)[C@H](OP(=O)(O)O)[C@@H]3O)[C@@H](O)[C@H]2O)C=CC1; test: purified protein, by the assay type; type: biochemical, E. coli; details: other: varied substrate 1 to 200 µM, 25 °C
Description: (§4) using a nonlinear regression method in GraphPad Prism 9.2.0 software. To determine the turnover number (kcat) using the same model, the enzyme concentration (based on the protein concentration determined by Bradford assay) was constrained to a constant value and analyzed by the following equation (Eq. 3):3 Y=Et×kcat×X/(Km+X)

[11] = system: Nc1nc2c(c(=O)[nH]1)N=C(CNc1ccc(C(=O)N[C@@H](CCC(=O)O)C(=O)O)cc1)CN2; test: purified protein, by the assay type; type: biochemical, E. coli; details: other: varied substrate 1 to 200 µM, 25 °C
Description: as §4

[12] = system: NC(=O)C1=CN([C@H]2O[C@H](COP(=O)(O)OP(=O)(O)OC[C@H]3O[C@@H](n4cnc5c(N)ncnc54)[C@H](OP(=O)(O)O)[C@@H]3O)[C@@H](O)[C@H]2O)C=CC1; test: Steady-state kinetic measurements; type: biochemical, Escherichia coli; details: other: varied substrate 1 to 200 µM, 25 °C
EcDHFR D27E [13] = target: T3, EcDHFR D27E; test: Steady-state kinetic measurements; type: biochemical; details: varied substrate 1 to 200 µM, 25 °C
Description: as §4

EcDHFR D27E/L28Q [14] = target: T4, EcDHFR D27E/L28Q; test: Steady-state kinetic measurements; type: biochemical; details: varied substrate 1 to 200 µM, 25 °C
Description: as §4

EcDHFR L28Q [15] = target: T5, EcDHFR L28Q; test: Steady-state kinetic measurements; type: biochemical; details: varied substrate 1 to 200 µM, 25 °C
Description: as §4

[16] = binary complex, 10× molar excess of ligand

With `CN(Cc1cnc2nc(N)nc(N)c2n1)c1ccc(C(=O)N[C@@H](CCC(=O)O)C(=O)O)cc1` [Methotrexate, reference compound] the Ki (DfrA5 [1]) was 579 ± 73.8 nM.

With `CCc1nc(N)nc(N)c1C#CC(C)c1cc2c(c(-c3ccc(CN)cc3)c1)OCO2` (centres unmarked) [UCP1223] the Ki (E. coli DHFR (EcDHFR)) was 1.58 ± 0.26 nM, the Ki (DfrA5 [1]) was 16.8 ± 0.29 nM and the Ki (EcDHFR D27E [2]) was 12.8 ± 0.56 nM. For the same compound, the “fold increase in Ki over EcDHFR” value (EcDHFR D27E [2]; D27E substitution) was 8 fold, the Ki (EcDHFR D27E/L28Q [3]) was 187 ± 5.5 nM and the “fold loss in affinities relative to EcDHFR” value (EcDHFR D27E/L28Q [3]; combinatorial mutant D27E/L28Q) was 118 fold. For the same compound, the Ki (EcDHFR L28Q [4]) was 7.37 ± 0.72 nM, the “fold loss of activity against DfrA1 and DfrA5 compared to EcDHFR” value (DfrA1 and DfrA5) was 10–14 fold and the “Ti 1” value (EcDHFR; [16]) was 68.5 ± 1.4 °C. For the same compound, the “Ti 2” value (EcDHFR; [16]) was 80.8 ± 0.2 °C, the “Δ1 (Ti shift vs apo)” value (EcDHFR; [16]) was 18.9 °C and the “Δ2 (Ti shift vs apo)” value (EcDHFR; [16]) was 20.6 °C. The “Ti 1” value (EcDHFR; ternary complex, +NADPH) was 78.9 ± 2.4 °C, the “Ti 2” value (EcDHFR; ternary complex, +NADPH) was 88.3 ± 0.5 °C and the “Δ1 (Ti shift vs apo)” value (EcDHFR; ternary complex, +NADPH) was 29.3 °C. The Ti (DfrA1; [16]) was 58.5 ± 0.1 °C, the “Δ (Ti shift vs apo)” value (DfrA1; [16]) was 8.7 °C and the Ti (DfrA1; ternary complex, +NADPH) was 71.2 ± 3.1 °C. The “Fold difference in MIC” value (E. coli BW25113; BW25113 w/o SMX vs w/ SMX) was 32, the MIC (E. coli BW25113; BW25113, w/ SMX (1:19)) was 0.625 µg/mL (≈ 1.5 µM) and the MIC (E. coli BW25113; BW25113, w/o SMX, 18 to 20 hours, 37°C) was 20 µg/mL (≈ 48.1 µM). For the same compound, the “Fold difference in MIC” value ([5]; BW25113 w/o SMX vs JW0451 w/o SMX) was 32, the MIC ([5]; Escherichia coli) was 0.625 µg/mL (≈ 1.5 µM) and the MIC [5] was 1.25 µg/mL (≈ 3.01 µM). It also gave an MIC ([6]; w/ SMX (1:19)) of 1.25 µg/mL (≈ 3.01 µM), an MIC ([6]; w/o SMX) of 20 µg/mL (≈ 48.1 µM) and an MIC ([7]; w/ SMX (1:19)) of 20 µg/mL (≈ 48.1 µM). It also gave an MIC ([7]; w/o SMX) of over 20 µg/mL, an MIC ([8]; w/ SMX (1:19)) of 10 µg/mL (≈ 24.1 µM) and an MIC ([8]; w/o SMX) of over 20 µg/mL. The Ti (DfrA5 [9]; [16]) was 67.3 ± 1.0 °C, the “Δ (Ti shift vs apo)” value (DfrA5 [9]; [16]) was 1.0 °C and the Ti (DfrA5 [9]; ternary complex, +NADPH) was 88.5 ± 0.2 °C.

DfrA5 (Escherichia coli) was tested, and the Km [10] was 19.9 ± 6.1 µM, the kcat [10] was 34.3 ± 3.3 s⁻¹ and the kcat/Km [10] was 1.7e+06 ± 500000 M⁻¹ s⁻¹. The Km [11] was 24.2 ± 6.6 µM, the kcat [11] was 31.4 ± 3.2 s⁻¹ and the kcat/Km [11] was 1.3e+06 ± 400000 M⁻¹ s⁻¹.

Compound `COc1cc(Cc2cnc(N)nc2N)c2c(c1OC)OC(C1CC1)C=C2` (centres unmarked) [Iclaprim, reference compound] has a Ki (DfrA5 [1]) of 99 ± 13.9 nM.

EcDHFR (Escherichia coli K-12) showed a Km [12] of 5.8 ± 0.8 µM and a kcat/Km [12] of 600000 ± 70000 M⁻¹ s⁻¹.

For `COc1cc(Cc2cnc(N)nc2N)cc(OC)c1OC` [Trimethoprim, reference compound], the MIC ([5]; Escherichia coli) was 0.04 µg/mL (≈ 0.138 µM), the MIC ([6]; w/ SMX (1:19)) was 0.078 µg/mL (≈ 0.269 µM) and the MIC ([6]; w/o SMX) was 0.625 µg/mL (≈ 2.15 µM). It also gave an MIC ([7]; w/ SMX (1:19)) of over 20 µg/mL, an MIC ([7]; w/o SMX) of over 20 µg/mL and an MIC ([8]; w/ SMX (1:19)) of over 20 µg/mL. The MIC ([8]; w/o SMX) was over 20 µg/mL.

Work on `Nc1nc2c(c(=O)[nH]1)N=C(CNc1ccc(C(=O)N[C@@H](CCC(=O)O)C(=O)O)cc1)CN2` [DHF, dihydrofolate] yielded a Km (EcDHFR D27E [13]) of 15.4 ± 2.1 µM, a Km (EcDHFR D27E/L28Q [14]) of 56.6 ± 8 µM and a Km (EcDHFR L28Q [15]) of 5.2 ± 1 µM.

Source: article PMC9106665 (Communications Biology, 2022)
